From patent publication US6831080B2, “Cinnamide derivatives as KCNQ potassium channel modulators” (Bristol-Myers Squibb Company, priority 2001, dated 2004)

How the values were obtained:
[1] = tested on: cortical spreading depression (KCl application), Long-Evans rats; assay: In vivo electrophysiology: number of cortical spreading depressions produced by KCl application; settings: 1 mg/kg, i.v., 15 min prior to KCl; rat
From the text: Male Long-Evans rats (300-450 g) were used in the present studies (Harlan). Rats were anesthetized with urethane anesthesia (1.2 g/kg i.p.) and placed in a stereotaxic frame. Under anesthesia a Silastic catheter was placed in the jugular vein of the rats. The skull was exposed using a scalpel. A small hole (approximately 2 mm by 3 mm) was drilled in to the skull rostral to the lambdoid suture using a microdrill and steel burr. The dura was disrupted and a drop of mineral oil was placed in this hole to prevent dehydration of the underlying cortex. Ultimately this hole was used for the application of crystalline KCl (described below).
Two additional holes were place in the skull unilaterally at 4 and 8 mm rostral to the application hole. Silver wire electrodes were placed in these latter holes and secured to the skull using acrylic cement. A similar silver wire electrode was sutured to the nuchal muscle to serve as a reference electrode. Electrical DC recordings were obtained using a standard differential amplifier (Warner, DP-304) and commercially available data acquisition equipment (Cambridge Electronic Design, 1401 A-D converter and Spike2 software).
All experimental procedures were conducted while the rats were maintained under anesthesia. Rats were injected with test compound, valproic acid or vehicle (100% PEG-400) 15 min prior to the application of crystalline KCl to the application site described above. All injections were given via the jugular vein at a volume of ≦0.5 ml/kg. Only one treatment was tested per animal. The effect of valproic acid was also determined in this study due to the fact that Depakote™ (divalproex sodium) is one of only three drugs currently indicated for the prophylatic treatment of migraine headache. Valproic acid (30-200 mg/kg i.v.) was obtained from Sigma Chemical Company and was dissolved in a vehicle of isotonic saline.
KCl was applied to the application site for 10 min and was then removed using a saline soaked cotton swab. Mineral oil was subsequently reapplied to the application site. Typically, this application produced a long-lasting series of spreading depressions. The number of spreading depressions produced by this KCl application was the primary measure used to access the effectiveness of compounds in this assay.
Data were analyzed using analyses of variance followed by the Dunnett post-hoc test for pairwise comparisons, when appropriate. A difference was considered significant when p≦0.05.
The effect of representative compounds of Formula I on spreading depression is expressed as the percent reduction from vehicle control and is listed in Table 3.

[2] = tested on: nerve injury-induced tactile allodynia (L5/L6 ligation), Sprague Dawley rats; assay: Chung model of neuropathic pain (Chung surgery and von Frey test); type: in vivo, rat; settings: i.v., von Frey thresholds over 90 min
Protocol: To test agents for activity against peripheral mononeuropathy nerve injury-induced tactile allodynia, male Sprague Dawley rats (wt. 120-160 g) were surgically prepared with unilateral tight ligation of spinal nerves L5 and L6 following the method of Kim and Chung (Kim S. H., Chung J. M. (1992) Pain, September;50(3):355-63). After 3-4 weeks recovery, paw withdrawal to light touch was assessed as described by Chaplan et al. (Chaplan S. R., et al., (1994) J. Neurosci Methods, July;53(1):55-63). In brief, rats are placed in a plastic cage with a wire mesh bottom and allowed to acclimate for 15-30 minutes, until cage exploration and grooming stops. The plantar surface of each hind paw is touched with a series of von Frey hairs with varying stiffness requiring a known force to buckle to determine the nociceptive threshold. Adult male Sprague Dawley rats (avg. wt. 340 g) were tested in the present study. After acclimation, baseline von Frey thresholds were assessed for the injured hindpaw at −15 min. All test compounds were delivered at 0 min by the intravenous (i.v.) route in a volume of 0.5-2 ml/kg. The vehicle for test compounds was 100% PEG-400. For gabapentin the vehicle was deionized H2O. Animals were tested in one of the following 4 treatment conditions: (a) PEG400, (b) gabapentin (Neurontin) 100 mg/kg, (c) test compounds 3 mg/kg and (d) test compounds 10 mg/kg. Following drug administration, von Frey thresholds are measured at 15, 30, 60 and 90 min. Data were analyzed by a 2-way repeated measures analysis of variance followed by Dunnett's test (p<0.05). Experimenters were kept blind to the treatment condition of rats they tested.
Reversal of neuropathic pain behavior may be expressed as a percentage (0-100%) of the maximum possible effect, over and above the vehicle effects. Specifically, drug effects can be described in terms Δ% MPE according to the following equation: [formula]
AUCdrug=area under the curve for von Frey thresholds of the drug-treated group;
AUCvehicle=area under the curve for von Frey thresholds in the vehicle group;
Time=duration of post-drug testing period (90 min); and
Max=maximum von Frey threshold (15 g).
For example, a compound which immediately reversed neuropathic pain behavior to normal levels, such that animals only responded to the highest von Frey filament (15 g), and maintained normal levels through out the post-drug testing period (90 min) would be calculated as Δ% MPE=100%.

[3] = tested on: stretched attend postures, BalbC/HSD mice; assay: Canopy test for anxiety: stretched attend postures (SAPs); type: in vivo, mouse; settings: for % Reduction SAPs: i.v., mouse
From the text: The purpose of the Canopy test is to investigate the potential of compounds of Formula I as effective treatments for anxiety by examining an integral component of the risk assessment repertoire of defensive behaviors, the stretched attend posture (SAPs). […] This behavior is investigatory, and is considered an important behavioral indicator of anxiety in mice (Grewal et al., 1997). In brief, mice are placed on an elevated circular platform with a covered space in the middle, and an open space surrounding the covered zone. The number of SAPs the animals makes when exploring this environment are measured.
Subjects: Male BalbC/HSD mice (Harlan Sprague Dawley) weighing approximately 20-25 g at the beginning of the experiment, were used. Animals were group housed 4-5 per cage, in standard shoebox cages and maintained on a 12:12 h light-dark cycle (lights on at 0600). All animals were allowed food and water ad libitum throughout the procedure.
Apparatus: The test apparatus is comprised of a black plexiglas circular platform (70 cm diameter) elevated 60 cm above the floor. A clear red plexiglas (translucent) ‘canopy’ (38 cm diameter) is supported 4 cm directly above the platform by a central pillar, effectively dividing the platform into an inner, covered zone (beneath the canopy) and an outer, exposed zone. The apparatus is illuminated by normal room lighting.
Procedure: On test days mice are transported in their home cage to the testing room which is free of noise/distraction and the mice are injected with the compound of choice, prior to testing. For the KCNQ compounds, when administered IV, pretreatment time is 15 minutes. For oral administration, pretreatment time is 1 hour. Following the pretreatment, the animal is placed in the covered zone of the platform, always oriented in the same direction, facing the pillar. For 5 minutes the animals are allowed to freely explore the apparatus. The dependent variable is the number of Stretched Attend Postures, which are scored by an observer blind to treatment condition. Data were analyzed by an overall analysis of variance followed by Dunnett's post hoc tests. An effect was considered significant if p<0.05.
All test compounds are administered in a volume of 10 ml/kg. Vehicle and buspirone (as the positive control) treated mice were run with each experiment, and buspirone was dissolved in the same vehicle as used per each compound. Compounds of Formula I were administered IV, in a vehicle containing 10% PEG400/5% Tween/85% water, warmed on a hot plate.

In the case of `C[C@H](NC(=O)/C=C/c1ccc(F)cc1)c1ccc2ccccc2c1` [Example 1, (S)-3-(4-Fluoro-phenyl)-N-(1-naphthalen-2-yl-ethyl)acrylamide], the “% Reduction (number of spreading depressions, from vehicle control)” value [1] is reported as 25 (1 mg/kg, i.v.) %, the “AUC (Δ% MPE)” value ([2]; 3 mg/kg) is reported as 8 (3 mg/kg, i.v.) Δ% MPE and the “% Reduction SAPs” value ([3]; 1.25 mg/kg) is reported as 44 (1.25 mg/kg, iv.) %.
`C[C@H](NC(=O)/C=C/c1ccccc1)c1cccc(N2CCOCC2)c1` [Example 82, (S)-3-Phenyl-N-[1-(3-morpholin-4-yl-phenyl)ethyl]acrylamide] was tested, and the “% Reduction (number of spreading depressions, from vehicle control)” value [1] was 27 (1 mg/kg, i.v.) %, the “AUC (Δ% MPE)” value ([2]; 10 mg/kg) was 25 (10 mg/kg, i.v.) Δ% MPE and the “% Reduction SAPs” value ([3]; 30 mg/kg) was 28 (30 mg/kg, i.v.) %. The “Stretched attend postures, percent of vehicle control” value ([3]; separate experiments with a vehicle control, dose not given) was 75 % of vehicle control.
`C[C@H](NC(=O)/C=C/c1ccc(F)cc1)c1ccc(F)c(N2CCOCC2)c1` [Example 169, (S)-N-[1-(4-Fluoro-3-morpholin-4-yl-phenyl)-ethyl]-3-(4-fluoro-phenyl)-acrylamide] was tested, and the “% Reduction (number of spreading depressions, from vehicle control)” value [1] was 25 (1 mg/kg, i.v.) %, the “AUC (Δ% MPE)” value ([2]; 10 mg/kg) was 31 (10 mg/kg,i.v.) Δ% MPE and the “% Reduction SAPs” value ([3]; 10 mg/kg) was 18 (10 mg/kg, i.v.) %.
